Columns and labels:
Assay in all cases: relative viability (nuclei count vs DMSO), 5 days (fraction); higher = more cells survive
Venetoclax + Tozasertib = compound: CC1(C)CCC(CN2CCN(c3ccc(C(=O)NS(=O)(=O)c4ccc(NCC5CCOCC5)c([N+](=O)[O-])c4)c(Oc4cnc5[nH]ccc5c4)c3)CC2)=C(c2ccc(Cl)cc2)C1 [Venetoclax] + Cc1cc(Nc2cc(N3CCN(C)CC3)nc(Sc3ccc(NC(=O)C4CC4)cc3)n2)n[nH]1 [Tozasertib] (partner 0.1 µM)
How it was run: (§1)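 One day after seeding in 1536-well plates, lung cancer cell lines were dosed by pin tool. Dosing was either single-drug or a fixed anchor-drug dose plus five library-drug doses (not always all listed) in √10 steps. After 5 days, nuclei were stained in one fix-and-stain step and counted on 4× images, and relative viability is the nuclei count of treated wells over that of vehicle wells, given as the median of duplicate plates.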

Selumetinib + Pemetrexed = compound: Cn1cnc2c(F)c(Nc3ccc(Br)cc3Cl)c(C(=O)NOCCO)cc21 [Selumetinib] + Nc1nc2[nH]cc(CCc3ccc(C(=O)N[C@@H](CCC(=O)O)C(=O)O)cc3)c2c(=O)[nH]1 [Pemetrexed] (partner 0.2 µM)
How it was run: as §1

Selumetinib + Navitoclax = compound: Cn1cnc2c(F)c(Nc3ccc(Br)cc3Cl)c(C(=O)NOCCO)cc21 [Selumetinib] + CC1(C)CCC(c2ccc(Cl)cc2)=C(CN2CCN(c3ccc(C(=O)NS(=O)(=O)c4ccc(N[C@H](CCN5CCOCC5)CSc5ccccc5)c(S(=O)(=O)C(F)(F)F)c4)cc3)CC2)C1 [Navitoclax] (partner 0.5 µM)
How it was run: as §1

Selumetinib + Crizotinib = compound: Cn1cnc2c(F)c(Nc3ccc(Br)cc3Cl)c(C(=O)NOCCO)cc21 [Selumetinib] + C[C@@H](Oc1cc(-c2cnn(C3CCNCC3)c2)cnc1N)c1c(Cl)ccc(F)c1Cl [Crizotinib] (partner 1 µM)
How it was run: as §1

| Cell Line | relative viability (Venetoclax + Tozasertib; first compound 0.01 µM) | relative viability (Venetoclax + Tozasertib; first compound 0.03162 µM) | relative viability (Venetoclax + Tozasertib; first compound 0.1 µM) | relative viability (Venetoclax + Tozasertib; first compound 0.3162 µM) | relative viability (Venetoclax + Tozasertib; first compound 1 µM) | relative viability (Selumetinib + Pemetrexed; first compound 0.02 µM) | relative viability (Selumetinib + Pemetrexed; first compound 0.06325 µM) | relative viability (Selumetinib + Pemetrexed; first compound 0.2 µM) | relative viability (Selumetinib + Pemetrexed; first compound 0.6325 µM) | relative viability (Selumetinib + Navitoclax; first compound 0.02 µM) | relative viability (Selumetinib + Navitoclax; first compound 0.06325 µM) | relative viability (Selumetinib + Navitoclax; first compound 0.2 µM) | relative viability (Selumetinib + Navitoclax; first compound 0.6325 µM) | relative viability (Selumetinib + Crizotinib; first compound 0.02 µM) | relative viability (Selumetinib + Crizotinib; first compound 0.06325 µM) | relative viability (Selumetinib + Crizotinib; first compound 0.2 µM) | relative viability (Selumetinib + Crizotinib; first compound 0.6325 µM) |
| --- | --- | --- | --- | --- | --- | --- | --- | --- | --- | --- | --- | --- | --- | --- | --- | --- | --- |
| SW 900 | 0.401 | 0.55 | 0.476 | 0.65 | 0.386 | 0.474 | 0.449 | 0.454 | 0.441 | – | – | – | – | – | – | – | – |
| PC-3 [JPC-3] | 0.841 | 0.909 | 0.816 | 0.88 | 0.853 | 1.2 | 0.819 | 0.82 | 0.836 | 0.824 | 0.744 | 0.721 | 0.651 | 0.98 | 0.904 | 0.905 | 0.774 |
| NCI-H1648 | 0.235 | 0.574 | 0.54 | 0.471 | 0.415 | – | 0.838 | 0.956 | 0.904 | – | – | – | – | – | – | – | – |
| A549 | – | – | – | – | – | – | – | – | – | 0.945 | 0.904 | 0.734 | 0.596 | 0.715 | 0.656 | 0.495 | 0.402 |
| A-427 | 0.203 | 0.24 | 0.212 | 0.201 | 0.186 | 1.11 | 1.05 | 1.05 | 1.04 | 1.02 | 0.868 | 0.76 | 0.68 | 0.88 | 0.768 | 0.73 | 0.701 |
| NCI-H1975 | 0.763 | 0.711 | 0.726 | 0.658 | 0.374 | 0.288 | 0.309 | 0.302 | 0.283 | 1.23 | 1.22 | 1.01 | 0.728 | 1.1 | 0.898 | 0.933 | 0.766 |
| LU99A | 0.28 | 0.26 | 0.234 | 0.295 | 0.321 | 0.195 | 0.184 | 0.184 | 0.245 | 0.856 | 0.816 | 0.928 | 0.563 | 0.615 | 0.556 | 0.558 | 0.544 |
| NCI-H1755 | 0.569 | 0.504 | 0.586 | 0.593 | 0.547 | 0.467 | 0.409 | 0.428 | 0.509 | 1.03 | 0.986 | 0.961 | 0.948 | 0.895 | 0.765 | 0.802 | 0.842 |
| LOU-NH91 | 0.652 | 0.697 | 0.576 | 0.684 | 0.604 | 0.438 | 0.397 | 0.458 | 0.385 | 0.631 | 0.607 | 0.514 | 0.556 | 0.709 | 0.715 | 0.683 | 0.677 |
| SK-LU-1 | 0.341 | 0.316 | 0.275 | 0.336 | 0.286 | 1 | 0.978 | 0.862 | 0.614 | 0.795 | 0.791 | 1.24 | 0.268 | 0.922 | 0.881 | 0.828 | 0.46 |
| BEN | 0.426 | 0.476 | 0.373 | 0.476 | 0.38 | 0.806 | 0.765 | 0.697 | 0.888 | 0.0655 | 0.0564 | 0.0657 | 0.0674 | 0.773 | 0.873 | 0.834 | 0.776 |
| NCI-H1734 | 0.275 | 0.241 | 0.216 | 0.269 | 0.239 | 0.387 | 0.373 | 0.404 | 0.418 | 0.862 | 0.818 | 0.87 | 0.679 | 0.775 | 0.52 | 0.591 | 0.574 |
| LCLC-103H | 0.575 | 0.396 | 0.36 | 0.51 | 0.454 | 0.437 | 0.479 | 0.5 | 0.519 | – | – | – | – | 1.02 | 0.846 | 0.857 | 0.948 |
| Calu-6 | – | – | – | – | – | – | – | – | – | 0.727 | 0.513 | 0.355 | 0.234 | 0.804 | 0.603 | 0.51 | 0.343 |
| NCI-H358 | 0.117 | 0.0943 | 0.115 | 0.0994 | 0.102 | 0.173 | 0.165 | 0.144 | 0.177 | – | – | – | – | 0.467 | 0.368 | 0.326 | 0.319 |
| NCI-H2342 | 0.59 | 0.617 | 0.375 | 0.568 | 0.656 | 0.778 | 0.7 | 0.758 | 0.839 | – | – | – | – | – | – | – | – |
| EBC-1 | – | – | – | – | – | – | – | – | – | 0.225 | 0.19 | 0.193 | 0.138 | 0.179 | 0.16 | 0.175 | 0.147 |
| NCI-H650 | 0.682 | 0.719 | 0.685 | 0.697 | 0.674 | 1.05 | 1.25 | 1.19 | 1.16 | – | – | – | – | 0.793 | 0.593 | 0.575 | 0.67 |
| NCI-H522 | 0.605 | 0.481 | 0.599 | 0.555 | 0.437 | 0.962 | 0.942 | 1 | 0.783 | – | – | – | – | – | – | – | – |
| NCI-H661 | 0.353 | 0.335 | 0.313 | 0.345 | 0.333 | 0.955 | 0.875 | 0.92 | 0.872 | – | – | – | – | 1.25 | 0.945 | 1.07 | 1.23 |
| NCI-H727 | 0.765 | 0.61 | 0.496 | 0.58 | 0.58 | – | – | – | – | 0.237 | 0.184 | 0.119 | 0.103 | 0.558 | 0.348 | 0.316 | 0.255 |
| NCI-H1793 | 0.227 | 0.347 | 0.321 | 0.297 | 0.237 | 0.782 | 0.601 | 0.435 | 0.517 | 0.478 | 0.304 | 0.311 | 0.281 | – | – | – | – |
| NCI-H1792 | – | – | – | – | – | 0.637 | 0.648 | 0.634 | 0.557 | 0.741 | 0.641 | 0.522 | 0.533 | 0.986 | 0.86 | 0.816 | 0.682 |
| IA-LM | – | – | – | – | – | – | – | – | – | 0.566 | 0.398 | 0.284 | 0.315 | 0.662 | 0.54 | 0.314 | 0.335 |

From the supplement of paper PMC10307832
